Test results taken from US6914049B2, “IGF-binding protein-derived peptide or small molecule” (Bioexpertise, LLC, priority 2001, dated 2005).

Experiments:
[1] = Metal-binding of peptides to Ni-NTA resin; conditions: percentage of loaded peptide bound to Ni-NTA resin; 1-1.5 mg loaded
Description: (§1) Apoptotic activity is expressed in arbitrary caspase-3 units normalized to MBD2 on a molar basis (MBD2 activity was defined as 100 units (avg. of 3 experiments); “nd” indicates “not done”; “ps” indicates phosphoserine. Metal-binding is expressed as a percentage of loaded peptide bound to a Ni-NTA resin; approximately 1-1.5 mg of peptide were loaded on the column. Cell uptake was determined using genetic fusions to GFP as described in Example 9.

HEK293 cells [2] = assay: Co-apoptotic activity with paclitaxel in presence of plasma proteins; assay type: cell-based, human; conditions: 50 ng/ml, 0.3 ng/ml paclitaxel, eight hours
Description: Co-apoptotic activity of MBD peptides or IGFBP-3 with paclitaxel was tested in the presence or absence of two plasma proteins; fibronectin and fibrinogen. MBD peptides or IGFBP-3, (50 ng/ml), 0.3 ng/ml paclitaxel, and plasma proteins (200 ng/ml) were added to 80% confluent HEK293 cells grown in DMEM essentially as described in Example 8. Caspase-3 was measured after an eight hour incubation.
Apoptotic activity was calculated in arbitrary caspase-3 units normalized to MBD2 (MBD2 activity was defined as 100 units) Results are summarized in Table 4 (average of 3 experiments).

[3] = Binding of IGFBP-3 to IMAC (NTA) resin charged with metal; conditions: approx. 1 mg loaded
Description: (§2) Binding of IGFBP-3 to immobilized metal affinity chromatography (IMAC) resin charged with various metals was measured. Approximately 1 mg of IGFBP-3 was loaded onto each column (NTA resin, Sigma Chemical Co., St. Louis, Mo.). The “percentage bound” was calculated by measuring OD280 of load, flow-through, wash and eluate at 60 mM imidazole. Typical recoveries were 85-95%.

MDA-MB-231 cells = assay: Co-apoptotic activity of IGFBP-3 with cisplatin; assay type: cell-based; conditions: MDA-MB-231 cells and cisplatin; FIG. 8C
HEK 293 cells [4] = assay: IGF-independence of apoptosis stimulation, caspase-3; assay type: cell-based, human
Description: HEK 293 cells were cultured under stressed conditions (low serum or in the presence of paclitaxel) with and without IGFBP-3 (50 ng/ml) or MBD2 (50 ng/ml). Apoptosis was assayed using the caspase-3 assay as described in Example 1.

[5] = test system: bax-alpha expression in HEK 293 cells; assay: Bax-alpha and bcl-2 mRNA expression; assay type: cell-based, human; conditions: paclitaxel 0.3 ng/ml, 50 ng/ml; FIG. 14A
Description: HEK 293 cells were cultured as described in Example 1, with the addition paclitaxel (0.3 ng/ml) and either IGFBP-3 or MBD2 at 50 ng/ml. Bax-alpha and bcl-2 mRNA and caspase 3 activity were assayed.

HEK 293 cells [6] = assay: Co-apoptotic activity of MBD peptides and paclitaxel, caspase-3; assay type: cell-based, human; conditions: normalized to MBD2 = 100 on a molar basis; peptide 50 ng/ml, 0.3 ng/ml paclitaxel, 8 hours
Description: Peptides (50 ng/ml) were added to 80% confluent HEK 293 cells grown in DMEM supplemented with 0.3 ng/ml paclitaxel concurrent with peptide. Caspase-3 activity was measured in cell extracts 8 hours post-addition.
as §1

[7] = test system: MA-16C mammary adenocarcinoma tumors; assay: MA-16C mammary adenocarcinoma tumor implants; assay type: in vivo, female C3H mice; conditions: for Lung Metastases: animals with metastases/animals
Description: Fragments of MA-16C mammary adenocarcinoma tumors were implanted subcutaneously into female C3H mice (8-11 animals per group). The animals were treated with vehicle alone, IGFBP-3 (4 mg/kg/day for 21 days by subcutaneous injection), doxorubicin (2 mg/kg on days 1 and 8 by intravenous injection), or IGFBP-3 plus doxorubicin. A separate study was performed where the animals were treated with vehicle alone, 5-fluorouracil (10 mg/kg on days 1-5 by intraperitoneal injection), or IGFBP-3 plus 5-fluorouracil. Tumor size was measured at day 18, and the mice were sacrificed at day 21, and the implanted tumors were removed for determination of caspase-3 activity (a marker of apoptosis-only performed for DOX groups).

[8] = Binding of IGFBP-3 to IMAC (NTA) resin without metal; conditions: metal none; approx. 1 mg loaded
Description: as §2

HEK293 cells [9] = assay: Co-apoptotic activity of IGFBP-3 and paclitaxel, caspase-3; assay type: cell-based, human; conditions: 200 ng/ml antibody, 30 minutes pretreatment; FIG. 8B
Description: Co-aptotic activity of IGFBP-3 in combination with paclitaxel was measured in the HEK293 assay described in Example 1. HEK293 cells were grown in DMEM plus 8% FCS, then incubated in 0.3 ng/ml of paclitaxel (TAXOL®), 50 ng/ml of IGFBP-3, or a combination of the two. Some cultures were pretreated for 30 minutes with 200 ng/ml of anti-beta-1-integrin antibody (Pharmingen). Caspase-3 was assayed using the ApoAlert caspase-3 kit from Clontech Inc.

[10] = Solubility / concentration in phosphate buffered saline; assay type: physicochemical; conditions: PBS
From the text: Formulation: The central domain of IGFBP-3 is exquisitely sensitive to proteolysis. Due to the limited, solubility of IGFBP-3, its low stability and pronounced tendency to aggregate, the development of suitable formulations and convenient routes of delivery for intact IGFBP-3 is challenging.

HEK293 cells [11] = assay: Caspase-3 apoptosis assay on nutritionally stressed HEK293 cells (Examples 1-2); assay type: cell-based, human; conditions: FIG. 4A/4B
Description: Human embryonal kidney 293 (HEK293) cells were grown in Dulbecco's Modified Eagle Medium (D-MEM) supplemented with fetal calf serum at 2%, 4%, 6%, or 8%. When the cells reached 80-85% confluency (cell titer approximately 2.1×10^6 cells per plate), 5 μg of IGFBP-3 or buffer control was added to each plate. The cells were incubated at 37° C. overnight. The next day the medium was removed and the cells were rinsed with trypsin-EDTA (0.25% trypsin, 1 mM EDTA) plus 1× phosphate buffered saline. The cells were centrifuged and the supernatant was removed. ApoAlert caspase-3 assay kit from Clontech Inc (Palo Alto, Calif.) was used to measure apoptosis. The cells were resuspended in 50 μl of chilled cell lysis buffer and incubated on ice for 10 minutes. The resulting cell, lysates were centrifuged at 14000 rpm in a Beckman microcentrifuge for 3 minutes at 4 C. The supernatant was transferred to new tubes and 50 μl of 2× reaction buffer/DTT plus 5 μl of 1 mM caspase-3 substrate was added to each tube. After incubating at 37 C. for 1 hour in a water bath, the samples were read at 405 nm in a microplate reader.
Peptides derived from IGFBP-3 were tested for pro-apoptotic activity essentially as described in Example 1.
The peptides tested are described in Table 1 (peptides marked with an asterisk include a hexahistidine tag).

[12] = IMAC of IGFBP-3 on Ni++ and Zn++ resins; assay type: binding
Description: Panels a and b (FIGS. 5A and 5B) show SDS-PAGE analysis of samples from Ni^++ and Zn^++ IMAC, respectively. FT indicates column flowthrough; W indicates wash; 50 indicates 50 mM imidazole wash; 60 indicates 60 mM imidazole wash; E indicates 1 M imidazole elution buffer; S indicates 1 M EDTA stripping buffer.
This previously unknown property of IGFBP-3 is intriguing and has a number of practical implications among which the ability to capture products using immobilized metal affinity (IMAC) resins leads to a number of potential applications in therapeutic, high-throughput discovery, and other research arenas.

Metal-binding [1]: 93 percentage
% IGFBP-3 bound ([3]; Ca^++): 0.0%
% IGFBP-3 bound ([3]; Co^++): 95.1%
% IGFBP-3 bound ([3]; Fe^2+): 46.6%
% IGFBP-3 bound ([3]; Fe^3+): 55.1%
% IGFBP-3 bound ([3]; Mg^++): 38.8%
% IGFBP-3 bound ([3]; Mn^++): 20.1%
% IGFBP-3 bound ([3]; Ni^++): 97.6%
% IGFBP-3 bound ([3]; Zn^++): 59.5%
% IGFBP-3 bound [8]: 0.0%
binding to IMAC resins ([12]; Ni^++ and Zn^++ IMAC, SDS-PAGE): bound both IMAC resins effectively
Substance: IGFBP-3: full-length, 264 aa, IGFBP-3 (insulin-like growth factor binding protein-3)
co-apoptotic activity with Fibrinogen (HEK293 cells [2]; Fibrinogen 200 ng/ml): 1.1 arbitrary caspase-3 units
co-apoptotic activity with Fibronectin (HEK293 cells [2]; Fibronectin 200 ng/ml): 3.5 arbitrary caspase-3 units
co-apoptotic activity, plasma protein none (HEK293 cells [2]; no plasma protein): 100.0 arbitrary caspase-3 units
co-apoptotic activity (MDA-MB-231 cells): failed to demonstrate any co-apoptotic activity
IGF dependence of pro-apoptotic activity (HEK 293 cells [4]; 0.3 ng/ml paclitaxel, alone or with Y60L-IGF-I, FIG. 11C): independent of the presence of IGF
pro-apoptotic activity under stressed conditions (HEK 293 cells [4]; low serum or paclitaxel, 50 ng/ml, FIGS. 11A, 11B): nearly identical
bax-alpha expression [5]: stimulates bax-alpha expression
Apoptotic Activity (HEK 293 cells [6]): 585 arbitrary caspase-3 units
Tumor Weight ([7]; 5FU study, 5-fluorouracil 10 mg/kg ip days 1-5, IGFBP-3 4 mg/kg/day sc): 3147 + 952 mg
Lung Metastases ([7]; 5FU study): 1/7
Tumor Weight ([7]; DOX study, IGFBP-3 4 mg/kg/day sc 21 days, doxorubicin 2 mg/kg iv days 1 and 8): 2632 + 554 mg
Lung Metastases ([7]; DOX study): 1/7
Caspase-3 ([7]; DOX study, tumors removed at day 21): 3.79 ± 3.25
co-apoptotic activity after anti-beta-1-integrin antibody pretreatment (HEK293 cells [9]): greatly inhibits the co-apoptotic activity
maximum solubility in phosphate buffered saline [10]: 7 mg/mL
pro-apoptotic activity (HEK293 cells [11]): has pro-apoptotic activity
imidazole concentration that elutes from the resin ([12]; immobilized nickel and zinc): 60 mM
